Measurements from US20260325504A1, “Genetically Engineered Human Pituitary Corticotroph Tumor Organoids Exhibit Divergent Responses to Selective Glucocorticoid Receptor Modulators” (Corcept Therapeutics Incorporated, priority 2022, published 2026).
Entries after “also recorded” stand apart in the source; their conditions may differ.

Experiments:
[1] = test system: SSTR5; test: Spectral flow cytometry, SSTR5 positive cells, iPSCUSP48MV organoids; type: cell-based, human; settings: 48 h, FIGS. 8B, F
Method: (§1) Sonic Hedgehog (SHH) was withdrawn from the organoid growth media 16 hours prior to treatment. The experimental treatment groups included: vehicle (Veh), mifepristone (500 nM, Selleckchem S2606), GANT61 (5 μM, Stemcell Technologies 73692), ketoconazole (Keto, 10 μM, Selleckchem S1353), pasireotide (Pas, 100 nM, Target Mol TP2207-SB001), octreotide (Oct, 100 nM, Selleckchem P1017), mifepristone plus GANT61, mifepristone plus Keto, mifepristone plus Pas, relacorilant (500 nM, Corcept Therapeutics CORT125134), relacorilant plus Pas, relacorilant plus Oct, or dexamethasone (Dexa, 100 nM, SIGMA S4902). In the combination treatments, cultures were pretreated with the GANT61, Keto, Pas or Oct for 2 hours prior to treatment with mifepristone or Rela. PitNET tissue derived organoids hPITO36, hPITO37, hPITO38, hPITO39, and hPITO40 were treated with the following experimental conditions: Vehicle (1), pasireotide (2), relacorilant (3), relacorilant & pasireotide (4), mifepristone (5), mifepristone & pasireotide (6). The IC50 values used for each hPITO line for each drug were determined based on dose responses (FIG. 12). All organoid cultures were treated for 48 hours prior to analysis.
The multicolor flow cytometry antibody panel was designed using the Cytek® Full Spectrum Viewer online tool to calculate the similarity index. Organoids were harvested in cold Serum-Free Defined Medium media and incubated with Zombie (BioLegend 423107, 1:100) for 15 minutes in the dark at room temperature, followed by incubation with fluorochrome-conjugated/unconjugated primary surface or cytoplasmic antibodies (Table 6) at 4° C. for 30 minutes. Cells were then washed with Cell Staining Buffer (BioLegend 420-201) and incubated at 4° C. for 30 minutes with secondary antibodies (Table 6). Cells were fixed using Cytofix/Cytoperm™ Fixation/Permeabilization Solution (BD Biosciences 554714) and washed with Fixation/Permeabilization wash buffer according to the recommended protocol. […] Data was acquired using the Cytek® Aurora, analyzed using Cytobank Premium software (Beckman Coulter).

[2] = test system: progesterone receptor; settings: cited from earlier work
[3] = test system: patients with Cushing's syndrome; settings: cited from earlier work; for tumor regression / tumor growth: CD patients, pituitary macroadenomas/corticotroph tumors; for ACTH levels in patients / cortisol levels in patients: patients with Cushing's syndrome/CD
[4] = test system: hPITO; test: Spectral flow cytometry, Zombie positive cells (cell death), hPITOs; type: cell-based, human; settings: 48 h, FIGS. 9K, L
Excerpt: 1.3 Generation and Culture of Human PitNET Tissue Organoids (hPITOs)
Patients undergoing planned transsphenoidal surgery for PitNETs were identified in the outpatient neuroendocrinology and neurosurgery clinics and collected by the St. Joseph's Hospital and Barrow Neurological Institute Biobank under the collection protocol PHXA-05TS038, and outcomes data protocol PHXA-0004-72-29 with approval of the Institutional Review Board (IRB) and patient consent. De-identified samples were shipped in collection and transport media (Table 3) to the Zavros laboratory (University of Arizona) for processing within 24 hours of collection. Resected PitNET tissues were washed with Dulbeccos Phosphate Buffered Saline (DPBS) supplemented with 1× Penicillin/Streptomycin, 1× Kanamycin and 1× Amphotericin/Gentamycin, minced into smaller pieces, and incubated with digestion buffer (Dulbecco's Modified Eagle Medium/Nutrient Mixture F-12 (DMEM/F12) supplemented with 0.4% Collagenase 2, 0.1% Hyaluronic Acid, 0.03% Trypsin). The tissue was incubated with Accutase (Thermo Fisher Scientific) for a further 5 minutes, and the cells were pelleted and washed with DPBS supplemented with antibiotics. Dissociated cells were then seeded as Matrigel™ domes in culture dishes and overlaid with growth media (Table 4). Media was replaced every 3 days and organoids were harvested for downstream experiments or passaged after 15 days of culture (FIG. 1B).
as §1
The multicolor flow cytometry antibody panel was designed using the Cytek® Full Spectrum Viewer online tool to calculate the similarity index. Organoids were harvested in cold Serum-Free Defined Medium media and incubated with Zombie (BioLegend 423107, 1:100) for 15 minutes in the dark at room temperature, followed by incubation with fluorochrome-conjugated/unconjugated primary surface or cytoplasmic antibodies (Table 6) at 4° C. for 30 minutes. Cells were then washed with Cell Staining Buffer (BioLegend 420-201) and incubated at 4° C. for 30 minutes with secondary antibodies (Table 6). Cells were fixed using Cytofix/Cytoperm™ Fixation/Permeabilization Solution (BD Biosciences 554714) and washed with Fixation/Permeabilization wash buffer according to the recommended protocol. […]

CC#C[C@]1(O)CC[C@H]2[C@@H]3CCC4=CC(=O)CCC4=C3[C@@H](c3ccc(N(C)C)cc3)C[C@@]21C [mifepristone, 11β-(4-dimethylaminophenyl)-17ß-hydroxy-17α-(1-propynyl)-estra-4,9-dien-3-one]
percentage of SSTR5 positive cells [1]: significant increase | binding to the progesterone receptor [2]: binding to the progesterone receptor | tumor regression / tumor growth [3]: not been observed; also recorded: without tumor growth | hyperglycemia secondary to hypercortisolism ([3]; patients with CD): significantly improves hyperglycemia | ACTH levels in patients [3]: increases ACTH; also recorded: raises ACTH (and thus cortisol) levels | cortisol levels in patients [3]: concomitant increase in cortisol secretion; also recorded: raises ACTH (and thus cortisol) levels | side effects ([3]; patients): significant side effects in some patients; also recorded: endometrial thickening and vaginal bleeding | cell death (Zombie positive cells) [4]: not observed

Cn1cc(S(=O)(=O)N2CCC3=Cc4c(cnn4-c4ccc(F)cc4)C[C@]3(C(=O)c3cc(C(F)(F)F)ccn3)C2)cn1 [relacorilant, (R)-(1-(4-fluorophenyl)-6-((1-methyl-1H-pyrazol-4-yl)sulfonyl)-4,4a,5,6,7,8-hexahydro-1H-pyrazolo[3,4-g]isoquinolin-4a-yl) (4-(trifluoromethyl)pyridin-2-yl) methanone]
magnitude of SSTR5 induction, relacorilant vs mifepristone [1]: significantly greater than that of mifepristone | percentage of SSTR5 positive cells [1]: significant increase | binding to the progesterone receptor [2]: no detectable binding | tumor regression / tumor growth [3]: induce tumor regression in some CD patients | tumor regression ([3]; macroadenomas, treated for three months, imaging of the pituitary gland): tumor regression in two patients | ACTH levels in patients [3]: did not significantly raise ACTH or cortisol levels | cortisol levels in patients [3]: did not significantly raise ACTH or cortisol levels | effects of excess cortisol on hypertension and insulin resistance ([3]; phase 2 study, patients with Cushing's syndrome): reversed the effects of excess cortisol on hypertension and insulin resistance | cell death (Zombie positive cells) [4]: significant increase in cell death | cell death in epithelial/mesenchymal hybrid cell population (CK20, vimentin, CXCR4) [4]: significant cell death | cell death in populations expressing stem cell markers SOX2, CXCR4 and nestin [4]: significant cell death | cell death (Zombie positive cells) ([4]; listed as Relacorilant): Induces Tumor Cell Death; also recorded: significant increase in Zombie positive cells
